This note sets out measurements from patent publication US8598355B2, “Amide compound” (Astellas Pharma Inc., priority 2008, dated 2013).

As a reminder, the Ki is a measure of affinity in units of concentration, obtained from inhibition or displacement. A word on the melting point: it is the temperature, or range, at which the solid turns liquid.

Data set [1] deals with T1, rat EP4 receptor (Rattus norvegicus, UniProt P43114). The experiment in a line: Evaluation test of rat EP4 receptor affinity ([3H]PGE2 binding, membrane fraction of HEK293 cells expressing rat EP4). More on the design: expressed in transfected cells; host or cells: HEK293 cells, transient transfection with Lipofectamine 2000; membrane fraction. As to conditions: [3H]PGE2 0.3 nM. As to the method:
Evaluation Test of Rat EP4 Receptor Affinity
Cell Culturing and Transfection
Using a 10 cm collagen-coated dish (Asahi Glass), HEK293 cells were cultured in D-MEM culture medium, the culture medium was removed at a confluence (90 to 100% density state) and washed with a phosphate buffer saline (PBS), and then the cells were detached with N,N,N′,N′-tetrakis(carboxymethyl)ethylenediamine (EDTA). The number of the cells were counted and seeded on a 15 cm collagen-coated dish to a confluence of 70%. On the next day, to an Opti-MEM culture medium at 1.2 mL/dish was added Lipofectamine 2000 (Invitrogen) at 60 μL/dish, followed by leaving to stand at room temperature for 5 minutes. A plasmid in which rat EP4 (Sequence Number 1) had been inserted into a TA cloning site of pcDNA3.1-V5-His-topo was added thereto at 15 μg/dish. After leaving to stand at room temperature for 30 minutes, the resultant was added to the dish and cultured for 20 to 24 hours. The cell culture was carried out in a CO2 incubator (37° C., 5% CO2).
Preparation of Membrane Fraction
The culture medium was removed by suction, 10 mL of cooled PBS was added thereto per 15 cm dish, and the cells were scraped using a cell scraper (Sumitomo Bakelite). They were washed with cooled PBS (1,200 rpm, 4° C., 5 min), and then suspended in 6 mL of cooled 20 mM Tris-HCl (pH 7.4; Nakalai Tesque Inc., including 5 mM EDTA (Nakalai Tesque Inc.) per dish and the resultant was homogenized using a Polytron and the homogenate was centrifuged (26,000 rpm, 20 min, 4° C.). The obtained precipitate was resuspended in cooled 20 mM Tris-HCl and homogenized again using a Polytron, and the homogenate was centrifuged (26,000 rpm, 20 min, 4° C.). The obtained precipitate was resuspended in 50 mM HEPES (pH 7.5; Dojindo Laboratories) at 1 mL per dish, homogenized using a Polytron, and freeze-stored at −80° C. as a membrane fraction. At this time, a part thereof was used for the measurement of the protein concentration. Measurement of the protein concentration was carried out in duplicate using a Bio-Rad Protein assay kit (Bio-Rad Laboratories) in accordance with the appended standard Protocol.
[^3H]PGE2 50 μL (final concentration 0.3 nM; Perkin Elmer), 100 μL (20 μg/well) of a membrane fraction prepared from the rat EP4 expression cell and 50 μL of a test compound were mixed in a 96-well microplate (Sumitomo Bakelite), incubated at room temperature for 1 hour, filtered by suction on a UniFilter-96 GF/B (Perkin Elmer) using a FilterMate Harvester (Perkin Elmer), and then washed three times with 300 μL/well of a cooled assay buffer. Dilution of [^3H]PGE2 and the membrane fraction was carried out using an assay buffer (50 mM HEPES, 10 mM MgCl2), and dilution of the test compound and the unlabeled PGE2 was carried out using DMSO and an assay buffer. Further, in the case of the addition of a human serum albumin (HSA), dilution was carried out using an assay buffer containing 4% HSA (final concentration 1%; Sigma). The UniFilter-96 GF/B was treated preliminarily by washing twice with 200 μL/well of a cooled assay buffer. The UniFilter-96 GF/B after filtration was dried in a dryer overnight, 50 μL/well of MicroScint20 (Perkin Elmer) was added thereto, and then the radioactivity was measured using a TopCount (Perkin Elmer). For measurement of the non-specific binding, an unlabeled PGE2 (final concentration 1 μM; Cayman) was added. All of the measurements were carried out in duplicate, and the specific binding amount was determined by subtracting the non-specific binding amount from the total binding amount. The Ki value was calculated according to the general methods.
In the connection, Ex represents the below-described Example Compound number.

The target in data set [2] is T1, rat EP4 receptor. Kind of data set: In vivo rat EP4 receptor antagonistic activity (ONO-4819/LPS, plasma TNF-α). As to conditions: SD rat, oral. As to the method:
Evaluation Test of In Vivo Rat EP4 Receptor Antagonistic Activity
A solution of PEG 400:20% Tween 80:aqueous 1 M NaHCO3 solution=1:4:5 of a test compound was orally administered to a SD rat (male, 6-week old) under non-fasting conditions, and after 1 hour, ONO-4819 was administered subcutaneously to the back of the rat. After 30 minutes, Lipopolysaccharide (LPS, 0.01 mg/kg) was administered to the tail vein without anesthesia, and after 60 minutes, 0.5 mL of heparin blood was collected from the fundus under ether anesthesia. The blood sample was centrifuged (3000 rpm, 10 minutes) to separate the plasma, and then the TNF-α concentration in the rat plasma was measured by an ELISA kit (see Hepatology Research Journal, vol. 21, 252-260, 2001). A value obtained by subtracting the TNF-α concentration of the group treated with ONO-4819 from the TNF-α concentration of the group not treated with ONO-4819 was taken as 100%, and the inhibitory rates to the value were calculated for the test compounds.
In this connection, Ex represents the below-described Example compound number.

T1 sequence (P43114 whole entry): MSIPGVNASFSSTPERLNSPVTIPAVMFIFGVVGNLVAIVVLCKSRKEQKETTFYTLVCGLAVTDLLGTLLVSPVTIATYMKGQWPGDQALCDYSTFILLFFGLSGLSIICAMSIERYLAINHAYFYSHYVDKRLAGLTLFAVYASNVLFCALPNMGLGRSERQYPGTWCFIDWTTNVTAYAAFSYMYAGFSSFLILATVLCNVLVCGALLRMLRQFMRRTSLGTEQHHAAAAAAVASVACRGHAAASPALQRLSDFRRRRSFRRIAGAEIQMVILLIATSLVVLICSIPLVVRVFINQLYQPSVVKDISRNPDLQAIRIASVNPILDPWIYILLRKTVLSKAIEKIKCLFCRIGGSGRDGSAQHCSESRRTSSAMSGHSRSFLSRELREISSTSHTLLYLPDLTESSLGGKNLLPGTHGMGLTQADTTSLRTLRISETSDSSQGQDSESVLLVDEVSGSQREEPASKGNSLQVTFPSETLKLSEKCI

With `C[C@H](NC(=O)c1cccc2ccn(Cc3ccc(-c4ccccc4)nc3)c12)c1ccc(C(=O)O)cc1` [Example 4, 4-{(1S)-1-[({1-[(6-phenylpyridin-3-yl)methyl]-1H-indol-7-yl}carbonyl)amino]ethyl}benzoic acid], in data set [1], the inhibition constant Ki was 0.82 nM.

On to `C[C@H](NC(=O)c1cccc2ccn(Cc3ccc(Cl)cc3)c12)c1ccc(C(=O)NS(=O)(=O)CCCO)cc1` [Example 6, 1-(4-chlorobenzyl)-N-[(1S)-1-(4-{[(3-hydroxypropyl)sulfonyl]carbamoyl}phenyl)ethyl]-1H-indole-7-carboxamide], for which, in data set [1], the affinity, expressed as Ki, was 31 nM.

On to `CN(NC(=O)c1cccc2ccn(CCOc3ccc(Cl)cc3)c12)c1ccc(C(=O)O)cc1` [Example 23], for which the affinity in data set [1], expressed as Ki, was 0.35 nM. The “Inhibitory rate (%)” value in data set [2] (dose 0.01 mg/kg) stood at 51%.

`O=C(NC[C@H]1CC[C@H](C(=O)O)CC1)c1cccc2ccn(Cc3ccc(Cl)cc3)c12` [Example 32] registered an inhibition constant (Ki) in data set [1] of 12 nM.

As for `O=C(NC[C@H]1CC[C@H](C(=O)O)CC1)c1cc(Cl)cc2ccn(Cc3ccc(Cl)cc3)c12` [Example 52], the inhibition constant (Ki) in data set [1] turned out to be 1.8 nM.

Consider `O=C(NC[C@H]1CC[C@H](C(=O)O)CC1)c1cc(C(F)(F)F)cc2ccn(Cc3ccc(Cl)cc3)c12` [Example 69], for which the Ki in data set [1] turned out to be 1.4 nM.

`C[C@H](NC(=O)c1cccc2ccn(Cc3ccc(-c4ccccc4)cn3)c12)c1ccc(C(=O)O)cc1` [Example 115]: the inhibitory constant (Ki) in data set [1] came out at 1 nM. For the same compound, the “Inhibitory rate (%)” value in data set [2] (dose 0.03 mg/kg) is reported as 60%.

In data set [1], `C[C@H](NC(=O)c1cccc2ccn(Cc3ccc(N4CCCCC4)nc3)c12)c1ccc(C(=O)O)cc1` [Example 132] showed a Ki of 2.6 nM.

In data set [1], `O=C(NC[C@H]1CC[C@@H](C(=O)O)CC1)c1cccc2ccn(Cc3ccc(Cl)cc3)c12` [Example 137] gave an inhibition constant Ki of 9.1 nM.

In data set [1], `C[C@H](NC(=O)c1cccc2ccn(Cc3coc(-c4ccccc4)n3)c12)c1ccc(C(=O)O)cc1` [Example 140] returned a Ki of 0.61 nM.

Turning to `O=C(O)c1ccc(CNC(=O)c2cc(Cl)cc3ccn(Cc4cc5ccccc5cn4)c23)cc1` [Example 143], the Ki in data set [1] was 1 nM. In data set [2] (dose 0.03 mg/kg), the “Inhibitory rate (%)” value is listed as 70%.

Consider `O=C(NC[C@H]1CC[C@H](C(=O)O)CC1)c1cc(Cl)cc2ccn(Cc3cc4ccccc4cn3)c12` [Example 146], for which the affinity in data set [1] corresponds to a Ki of 1.8 nM. Further, the “Inhibitory rate (%)” value in data set [2] (dose 0.01 mg/kg) is on record as 88%.

In data set [1], `O=C(NC[C@H]1CC[C@H](C(=O)O)CC1)c1cc(C(F)(F)F)cc2ccn(Cc3cc4ccccc4cn3)c12` [Example 159] displayed an inhibition constant (Ki) of 2.1 nM. Further, the “Inhibitory rate (%)” value in data set [2] (dose 0.03 mg/kg) turned out to be 68%.

Regarding `C[C@H](NC(=O)c1cccc2ccn(CCOC3CCCCC3)c12)c1ccc(C(=O)O)cc1` [Example 164], in data set [1], the Ki was determined as 6.3 nM.

With `O=C(O)c1ccc(CNC(=O)c2cccc3ccn(Cc4cc5ccccc5o4)c23)cc1` [Example 187], the inhibition constant Ki in data set [1] was determined as 0.75 nM. Moreover, in data set [2] (dose 0.03 mg/kg), the “Inhibitory rate (%)” value came to 58%.

On to `O=C(NC[C@H]1CC[C@H](C(=O)O)CC1)c1cccc2ccn(Cc3cc4ccccc4o3)c12` [Example 188], for which the Ki in data set [1] amounted to 1.2 nM. Further, in data set [2] (dose 0.01 mg/kg), the “Inhibitory rate (%)” value is 88%.

In data set [1], `O=C(NC[C@H]1CC[C@H](C(=O)O)CC1)c1cccc2ccn(Cc3cc4ccccc4s3)c12` [Example 206] displayed an inhibition constant Ki of 1.2 nM. The “Inhibitory rate (%)” value in data set [2] (dose 0.01 mg/kg) was found to be 72%.

`CN(NC(=O)c1cccc2ccn(Cc3csc(-c4ccccc4)n3)c12)c1ccc(C(=O)O)cc1` [Example 207] displayed a Ki in data set [1] of 1.1 nM. The “Inhibitory rate (%)” value in data set [2] (dose 0.03 mg/kg) turned out to be 83%.

As for `O=C(O)c1ccc(CNC(=O)c2cc(Cl)cc3ccn(Cc4csc(-c5ccccc5)n4)c23)cc1` [Example 208], the inhibition constant Ki in data set [1] was 1.8 nM. Also, the “Inhibitory rate (%)” value in data set [2] (dose 0.01 mg/kg) amounted to 35%.

As for `O=C(NC[C@H]1CC[C@H](C(=O)O)CC1)c1cc(Cl)cc2ccn(Cc3csc(-c4ccccc4)n3)c12` [Example 209], affinity in data set [1] was put at a Ki of 1.9 nM.

Compound `O=C(NC[C@H]1CC[C@H](C(=O)O)CC1)c1cc(Cl)cc2ccn(CCOc3ccc(Cl)cc3)c12` [Example 210] showed a Ki in data set [1] of 1.3 nM. The “Inhibitory rate (%)” value in data set [2] (dose 0.03 mg/kg) amounted to 67%.

In data set [1], `O=C(O)c1ccc(CNC(=O)c2cc(Cl)cc3ccn(CCOc4ccc(Cl)cc4)c23)cc1` [Example 211] showed a Ki of 1.7 nM. Also, in data set [2] (dose 0.01 mg/kg), the “Inhibitory rate (%)” value was determined as 43%.

Compound `O=C(O)c1ccc(CNC(=O)c2cc(C(F)(F)F)cc3ccn(Cc4csc(-c5ccccc5)n4)c23)cc1` [Example 212] had an inhibitory constant (Ki) in data set [1] of 2.4 nM. Moreover, the “Inhibitory rate (%)” value in data set [2] (dose 0.01 mg/kg) turned out to be 52%.

`O=C(NC[C@H]1CC[C@H](C(=O)O)CC1)c1cc(C(F)(F)F)cc2ccn(Cc3csc(-c4ccccc4)n3)c12` [Example 213] registered an inhibition constant Ki in data set [1] of 2 nM. The “Inhibitory rate (%)” value in data set [2] (dose 0.01 mg/kg) was determined as 75%.

On to `O=C(NC[C@H]1CC[C@H](C(=O)O)CC1)c1cc(C(F)(F)F)cc2ccn(Cc3ccc(-c4ccccc4)cn3)c12` [Example 214], for which the Ki in data set [1] was 2.2 nM. Besides, the “Inhibitory rate (%)” value in data set [2] (dose 0.01 mg/kg) is recorded as 62%.

As for `O=C(NC[C@H]1CC[C@H](C(=O)O)CC1)c1cc(C(F)(F)F)cc2ccn(Cc3cccc(Cl)n3)c12` [Example 216], the affinity in data set [1] corresponds to a Ki of 16 nM.

For `O=C(NC[C@H]1CC[C@H](C(=O)O)CC1)c1cc(C(F)(F)F)cc2ccn(Cc3cnc4ccccc4c3)c12` [Example 217], the affinity in data set [1] corresponds to a Ki of 3 nM.

With `O=C(NC[C@H]1CC[C@H](C(=O)O)CC1)c1cc(C(F)(F)F)cc2ccn(Cc3ccc4cccnc4c3)c12` [Example 218], the Ki in data set [1] stood at 2.9 nM.

`O=C(NC[C@H]1CC[C@H](C(=O)O)CC1)c1cc(C(F)(F)F)cc2ccn(Cc3cccc4cccnc34)c12` [Example 219] registered a Ki in data set [1] of 3.3 nM.

The compound `O=C(NC[C@H]1CC[C@H](C(=O)O)CC1)c1cc(C(F)(F)F)cc2ccn(Cc3cccc4cnccc34)c12` [Example 220] displayed a Ki in data set [1] of 16 nM.

`O=C(NC[C@H]1CC[C@H](C(=O)O)CC1)c1cc(C(F)(F)F)cc2ccn(Cc3ccc4ncccc4c3)c12` [Example 222] registered a Ki in data set [1] of 2.8 nM.

Take `O=C(NC[C@H]1CC[C@H](C(=O)O)CC1)c1cc(C(F)(F)F)cc2ccn(Cc3ccc4ccncc4c3)c12` [Example 223]: the inhibition constant Ki in data set [1] is 3.5 nM.

In turn, `O=C(NC[C@H]1CC[C@H](C(=O)O)CC1)c1cc(F)cc2ccn(Cc3cc4ccccc4cn3)c12` [Example 225] registered an inhibitory constant (Ki) in data set [1] of 2.1 nM. The “Inhibitory rate (%)” value in data set [2] (dose 0.003 mg/kg) came to 77%.

With `O=C(NC[C@H]1CC[C@H](C(=O)O)CC1)c1c(F)ccc2ccn(Cc3cc4ccccc4cn3)c12` [Example 226], the inhibition constant Ki in data set [1] came to 2.8 nM.

Regarding `O=C(NC[C@H]1CC[C@H](C(=O)O)CC1)c1cc(Cl)cc2ccn(Cc3cc4ccccc4o3)c12` [Example 227], the melting point is 228 to 230 °C. Also, in data set [1], the inhibition constant Ki worked out at 1.7 nM.

As for `O=C(NC[C@H]1CC[C@H](C(=O)O)CC1)c1cc(C(F)(F)F)cc2ccn(Cc3cc4ccccc4o3)c12` [Example 228], in data set [1], the affinity, expressed as Ki, was 2.1 nM.
